As a reminder, the IC50 is the concentration that inhibits the measured activity by half.

Where a name gives a salt, the structure may show the parent alone. Read-outs that look alike come from different tables or passages of the source. A value given as a limit tells only on which side of the number the result lay.

The results in this text go back to patent US20240299401A1, “NOVEL REDOX-BASED THERAPEUTIC APPROACH FOR TREATMENT OF CANCER” (THE PENN STATE RESEARCH FOUNDATION, priority 2020, published 2024).

In data set [1] the test system is extracellular reduced thiols. The data set can be described thus: Extracellular thiols measurement (DTDP method). Conditions: for thiols efflux: A549 and H1299, 24 h, Erastin 5 μM, MSG 50 mM, Sorafenib 2.5 μM, trans-2,4-PDC 100 μM; for extracellular reduced thiols levels: MCF7 cells. Format: cell-based, human. As to the method:
Cell culture media was collected at specified time points after incubation with the respective compounds as described in the respective figure legends and extracellular total thiols were measured using the DTDP method 19. The protocol was adjusted to 96-well plate format. […] Absorbance was measured at 324 nm in a spectrophotometer (PowerWave HT, BioTek, VT, USA). The assay mixture with fresh media was used as a blank.

Data set [2] has as its system A549. The data set can be described thus: WST-1 cytotoxicity, A549. Format: cell-based, human. To be noted: A549 (Lung), compound alone, 24 h, '>' = dose approximation, read-out: IC50 values. The method, then:
(§1) Two different cytotoxicity/proliferation kit was used in this study i.e., WST-1 proliferation assay kit (Roche, Indianapolis, IN, USA; Cat #28620000) and Cell-titer Glo-luminescent cell viability assay (Promega, WI, USA; Cat #0000348721). Majority of the cell proliferation/cytotoxicity experiments were performed with WST-1 assay. Briefly, cells were seeded at the indicated density for 24 h in 96 well plate, media was replaced, and subsequently treated with the test compounds at different doses. […] Cell titer Glo-assay was additionally performed in certain cases to validate the results from WST-1 assay as outlined above following manufacturer's instructions and luminescence was measured using a FLx100 Luminometer (CLARIOSTAR®, Ortenbery, Germany). […] Other proliferation/cytotoxicity assays were also carried out i.e., Quant™-iT PicoGreen ds DNA assay kit (Thermo Scientific, Rockwood, TN, USA, P7589) following manufacturer's instructions, Trypan blue (Sigma, Ayrshire, UK, T8154) and acid phosphatase assay for validation of cytotoxicity/proliferation data from other assays.
Background: Tetrazolium assays rely on reduction of a dye to a coloured formazan, in cell work by metabolically active cells.

Data set [3] concerns H661. The data set can be described thus: WST-1 cytotoxicity, H661. Conditions: H661 (Lung), compound alone, 24 h, '>' = dose approximation, read-out: IC50 values. It counts as cell-based, human. The method, then:
as §1

The subject of data set [4] is NB4. Briefly: WST-1 cytotoxicity, NB4. Format: cell-based, human. To be noted: NB4 (Leukemia), compound alone, 24 h, '>' = dose approximation, read-out: IC50 values. The method, then:
as §1

Data set [5] relates to HL60. Briefly: WST-1 cytotoxicity and synergy analysis, HL60. Format: cell-based, human. Conditions: HL60 (Leukemia), compound alone, 24 h, '>' = dose approximation, read-out: IC50 values. The method, then:
as §1

Data set [6] has as its system 23 different human cell lines of multiple cancer origins. The data set can be described thus: Cytotoxicity across the cancer cell line panel (summary statements). It counts as cell-based. The method, then:
as §1

The test system of data set [7] is ATF4. To be noted: HEK293 ATF4 reporter; tunicamycin 2.5 μM, other compounds 5.0 μM; 24 h.
Procedure: The next day, media was replaced with respective compounds as described. Twenty-four hours post-treatment, media were aspirated and replaced with 1:1 ratio of PBS:Bright Glo luciferase reagent mix (Promega, Madison, WI, USA) according to manufacturer's protocol. Cells were incubated in the dark for 10 min at room temperature with gentle rocking and luciferase activity was measured using an FLx100 Luminometer (CLARIOSTAR®, Ortenbery, Germany). In parallel, the same setup was made, and the cells were used to monitor the proliferation/toxicity of individual exposed compounds. Luciferase signal is normalized to the to the proliferation/toxicity of the individual compounds. Bortezomib (50 nM, Sigma-Aldrich, St. Louis, MO, USA), a known agonist for ATF4, was used as a positive control.
The next day, old media was replaced with media containing the respective compounds as described in the figure legends. […] Cells were incubated in the dark for 10 min at room temperature with gentle rocking and luciferase activity was measured using an FLx100 Luminometer (CLARIOSTAR®, Ortenbery, Germany). […] In parallel, the same setup was made, and the cells were used to monitor the proliferation/toxicity of individual compounds. Luciferase signal was normalized to correct for the proliferation/toxicity of the individual compounds. […] For ATF4 reporter assay, Hek293T reporter cells 20 were cultured similarly as indicated for MCF7 cells, except for seeding density was set at 300 cells/mm2. All other experimental set up was similar.
The subject of data set [8] is H1299. Briefly: WST-1 cytotoxicity, H1299. It counts as cell-based, human. Conditions: H1299 (Lung); compound alone; 24 h; '>' = dose approximation; read-out: IC50 values. The method, then:
as §1

For data set [9], the system named is MCF-7. Briefly: WST-1 cytotoxicity, MCF-7. It counts as cell-based, human. To be noted: MCF7 (Breast); compound alone; 24 h; '>' = dose approximation; read-out: IC50 values. The method, then:
as §1

Data set [10] concerns SLC7A11. Briefly: SLC7A11 mRNA expression (qRT-PCR). To be noted: HL60 and H1299 cells. Background: Real-time PCR tracks product formation cycle by cycle.

For `O=C(O)[C@H]1CN[C@H](C(=O)O)C1` (relative stereo) [trans-2,4-PDC], in [1], the thiols efflux result is recorded as “no effect”.

For the molecule `CCCCS(=N)(=O)CCC(N)C(=O)O` (stereo not shown) [BSO], the “impact on the DPDS-induced increase in thiols efflux” value in [1] (MCF7, co-exposure, time-course) was “little or no impact”.

In the case of `COc1cc(/C=C/C(=O)CC(=O)/C=C/c2ccc(O)c(OC)c2)ccc1O` [Curcumin, reference compound], the IC50 was more than 20 µM in [2] (Homo sapiens); more than 20 µM in data set [3] (Homo sapiens, NCI-H661); more than 20 µM in data set [4] (Homo sapiens, NB-4); more than 20 µM in data set [5] (Homo sapiens, HL-60).

As to `c1ccc(C[Se][Se]Cc2ccccc2)cc1` [DBDS, dibenzyl diselenide], the extracellular reduced thiols entry in [1] (HEK293 ATF4 reporter cells, 5.0 μM) was “increased levels of extracellular reduced thiols”; in [1] (all the tested cell lines, H1299 and HL60), “highly effective”.

`COC(=O)/C=C/C(=O)OC` [Dimethyl fumarate, reference compound]: the IC50 in data set [2] (Homo sapiens) was more than 40 µM; in data set [3] (Homo sapiens, NCI-H661), more than 40 µM; in data set [4] (Homo sapiens, NB-4), more than 40 µM; in data set [5] (Homo sapiens, HL-60), more than 40 µM.

As for `CCOc1ccccc1-n1c(C(C)N2CCN(C(=O)COc3ccc(Cl)cc3)CC2)nc2ccccc2c1=O` (stereo not shown) [Erastin], the “effect of co-treatment on cytotoxicity of sodium selenite and selenocystine” value in [6] is “inhibition of cytotoxicity”.

Turning to `c1ccc(SSc2ccccc2)cc1` [Phenyl disulfide], the IC50 in data set [2] (Homo sapiens) was more than 40 µM; in data set [3] (Homo sapiens, NCI-H661) it was more than 20 µM; in data set [4] (Homo sapiens, NB-4), more than 20 µM; in data set [5] (Homo sapiens, HL-60), more than 40 µM.

Regarding `O=C(O)c1cc(/N=N/c2ccc(S(=O)(=O)Nc3ccccn3)cc2)ccc1O` [Sulfasalazine], the “effect of co-treatment on cytotoxicity of sodium selenite and selenocystine” value in [6] (chemical inhibition of cystine transport) was “inhibition of cytotoxicity”.

`C[S+]([O-])CCCCN=C=S` (stereo not shown) [Sulforaphen, reference compound]: the IC50 was more than 10 µM in [2] (Homo sapiens); more than 10 µM in data set [3] (Homo sapiens, NCI-H661); more than 20 µM in [4] (Homo sapiens, NB-4); more than 20 µM in data set [5] (Homo sapiens, HL-60). The “extracellular reduced thiols levels” value in data set [1] is recorded as “induced”. Also, the ATF4 activity entry in [7] is listed as “not effective”.

For `CC(C)(C)c1cc(O)ccc1O` [Tert-butyl hydroxyquinone, reference compound], the IC50 in [2] was more than 20 µM; in data set [3] it was more than 40 µM; in [8], more than 100 µM; in data set [4], more than 20 µM; in data set [5], more than 25 µM; in data set [9], more than 60 µM. In data set [1], the “extracellular reduced thiols levels” value is “induced”. The ATF4 activity entry in data set [7] is “not effective”. Besides, the SLC7A11 expression entry in data set [10] was “Increased SLC7A11 expression”.

Regarding `c1ccc([Te][Te]c2ccccc2)cc1` [diphenyl ditelluride], in data set [7], the ATF4 activity entry is “Increased ATF4 activity”.

On to `N[C@@H](CCC(=O)O)C(=O)[O-].[Na+]` [mono-sodium glutamate], for which the thiols efflux entry in data set [1] is given as “inhibited thiols efflux”.

In the case of `CNC(=O)c1cc(Oc2ccc(NC(=O)Nc3ccc(Cl)c(C(F)(F)F)c3)cc2)ccn1` [sorafenib], the thiols efflux entry in [1] is recorded as “no effect”.

For Tunicamycin [reference compound], the IC50 in data set [8] was more than 20 µM; in data set [9], more than 5 µM. Also, the ATF4 activity result in data set [7] is “Increased ATF4 activity”. Further, the SLC7A11 expression entry in [10] is given as “Increased SLC7A11 expression”.
